Legend:
[1] = test system: Cryptococcus yeast (CHY3833 and CHY3836); assay: Yeast replication secondary screen (OD600); type: cell-based, Cryptococcus neoformans serotype D (deneoformans); conditions: 10 μM, 12 h at 30°C
Description: (ii) Yeast replication. CHY3833 and CHY3836 were each grown in YPD liquid overnight at 30°C to saturation and then resuspended in 0.5× YPD at an OD600 of 0.005. Strains were aliquoted into 384-well plates with inhibitors and grown for 12 h at 30°C at […] before OD600 readings were taken. Compounds that caused a >10% decrease in growth were considered yeast growth inhibitors.

[2] = test system: normal human dermal fibroblasts (NHDF) cells; assay: Fibroblast cytotoxicity (CellTiter-Glo); type: cell-based; conditions: 10 µM
Description: PrimaPure normal human dermal fibroblasts (NHDF) cells (Genlatis PH10605A) were cultured and passaged in fibroblast growth medium (Genlatis PM116500) according to the manufacturer’s protocol. NHDF cells (1 × 10^3 per well) were plated in a 384-well plate in cell culture medium. The cells were incubated with each compound of interest at 10 μM concentration for 72 h at 37°C and 5% CO2. Following treatment, CellTiter-Glo (Promega) reagent was used to assay ATP-dependent luminescence and thus provide a measure of cell viability. […] For cytotoxicity dose-response curves (Fig. 4C and Fig. 5C), compounds were titrated from 80 μM to 0.5 μM in duplicates.

SMILES	Yeast Inhibition: % Inhibition [1] [%]	Cytotoxicity: Relative Cell Viability (% of Negative Control) [2]
c1ccc(-c2nc([P+](c3ccccc3)(c3ccccc3)c3ccccc3)c(N3CCCCCC3)o2)cc1 [compound 4345313]	101.2	28.8 % of Negative Control
CCCCSc1nc2ccc(C)cc2[nH]1 [compound 2129690]	80.1	104.3 % of Negative Control
COC(=O)C1=C(N)OC2=C(C(=O)CCC2)C1c1ccc(OC)c(OC)c1 (stereo not drawn) [compound 3355288]	9.4	104.5 % of Negative Control
O=C(CCSc1ccccc1)N1CCC(c2cccs2)CC1 [compound 71786877]	10.0	89.8 % of Negative Control
CC(C)C(=O)Nc1nnc(SCc2cccc(F)c2)s1 [compound 4086498]	20.2	106.8 % of Negative Control
O=S(=O)(NCc1csc(-c2ccccc2)n1)c1cc(Cl)ccc1Cl [compound 7119035]	38.8	89.2 % of Negative Control
Cc1cc(C(=O)N2CCC(Oc3ncccc3Cl)CC2)c(C)o1 [compound 71798856]	54.8	93.6 % of Negative Control
Cc1nc(NC(=O)CCc2ccccc2)sc1C [compound 733834]	89.7	96.8 % of Negative Control
OC(COCC12CC3CC(CC(C3)C1)C2)CN1CCc2ccccc2C1 (stereo not drawn) [compound 16456321]	84.7	12.1 % of Negative Control
O=C1CC(c2ccccc2)[Se]C(c2ccccc2)C1 (stereo not drawn) [compound 3287596]	100.2	45.9 % of Negative Control
Cc1cccc2nc(CSC(=S)NCc3cccnc3)cn12 [compound 957599]	59.9	10.0 % of Negative Control
OC(COc1ccc(Br)cc1Br)CN1CCc2ccccc2C1 (stereo not drawn) [compound 43842355]	76.5	28.9 % of Negative Control
CCc1ccccc1NC(=O)c1cc(C)oc1C [compound 8839503]	37.3	103.5 % of Negative Control
Cc1cc(C(=O)N(CCc2cccs2)C2CC2)c(C)o1 [compound 71781394]	95.6	103.1 % of Negative Control
COc1ccc(Cc2nc3ccccc3[nH]2)cc1 [compound 763894]	23.2	98.0 % of Negative Control
O=C(NC(=S)NCc1ccccc1)c1ccccc1 [compound 700976]	78.1	97.5 % of Negative Control
CCOC(=O)c1ccc(NC(=O)CC2Sc3ncnn3C2=O)cc1 (stereo not drawn) [compound 2954695]	101.7	99.4 % of Negative Control
Cc1nc(NC2CCCCC2)c2ccsc2n1 [compound 2239015]	45.4	75.4 % of Negative Control
CCCOC1(NS(=O)(=O)c2ccccc2)C(Cl)=C(Cl)C(=O)c2ccccc21 (stereo not drawn) [compound 3397555]	101.3	17.7 % of Negative Control
COc1ccc(CCNC(=O)c2c(O)nc3ccccn3c2=O)cc1OC [compound 16010290]	-0.7	103.5 % of Negative Control
Nc1cc(Cl)c([N+](=O)[O-])cc1OCc1ccccc1 [compound 3521356]	52.3	102.1 % of Negative Control
O=C1/C(=C/c2ccncc2)SC(=S)N1Nc1ccccc1 [compound 1636480]	67.7	86.8 % of Negative Control
COc1ccc2nc(NS(=O)(=O)c3ccc(Cl)s3)sc2c1 [compound 16934153]	-7.4	76.4 % of Negative Control
COc1ccc(Nc2nc3ccc(OC)cc3s2)cc1 [compound 7086348]	31.0	91.3 % of Negative Control

SMILES	Yeast Inhibition: % Inhibition [1] [%]	Cytotoxicity: Relative Cell Viability (% of Negative Control) [2]
Cc1nc(C)c(C(=O)NCCn2ncc3c(N4CCN(Cc5ccccc5)CC4)ncnc32)s1 [compound 27460748]	22.5	112.9 % of Negative Control
CC(C)c1nc(-c2ccc(N3CCN(C(=O)Cc4cn(C)c5ccccc45)CC3)nc2)no1 [compound 71780502]	-2.9	91.8 % of Negative Control
O=C(c1ccc2nsnc2c1)N1CCSC(c2ccccc2Cl)CC1 (stereo not drawn) [compound 76151751]	14.7	97.8 % of Negative Control
Cc1cccc2sc(OC3CN(C(=O)Cc4ccc(F)cc4)C3)nc12 [compound 71796286]	3.1	99.2 % of Negative Control
COc1ccccc1NS(=O)(=O)c1cc(Cl)ccc1Cl [compound 766532]	96.0	56.4 % of Negative Control
Cc1ccc(S(=O)(=O)Nc2cc(Sc3nc[nH]n3)c(O)c3ccccc23)c(C)c1 [compound 2133779]	98.3	3.5 % of Negative Control
CCSc1oc(-c2ccco2)nc1[P+](c1ccccc1)(c1ccccc1)c1ccccc1 [compound 4360162]	72.3	41.9 % of Negative Control
O=C(Nc1nc2ccccc2s1)C1CCCCN1S(=O)(=O)c1ccc(Cl)s1 (stereo not drawn) [compound 16801811]	24.0	86.9 % of Negative Control
O=C(/C=C/c1ccco1)N1CCCc2ccccc21 [compound 768672]	37.4	109.0 % of Negative Control
CC(C)(C)c1c[se]c(=S)s1 [compound 3797566]	91.9	98.5 % of Negative Control
O=C(/C=C/c1cccc(F)c1)c1ccc[nH]1 [compound 7185492]	99.0	40.0 % of Negative Control
O=C(Nc1ccc2[nH]c3c(c2c1)CCCC3)c1ccco1 [compound 852322]	65.7	77.3 % of Negative Control
COc1ccc(NC(=O)CN2CCN(c3c(C)cccc3C)CC2)cc1 [compound 2200363]	64.6	71.8 % of Negative Control
O=C(Nc1nc2c(s1)CCc1ccccc1-2)c1ccco1 [compound 701070]	1.7	92.9 % of Negative Control
Cc1cc(C)c(S(=O)(=O)Nc2nc(C(F)(F)F)cs2)c(C)c1 [compound 4413055]	9.5	49.5 % of Negative Control
OC(COc1ccc(C23CC4CC(CC(C4)C2)C3)cc1)C[N+]1(Cc2ccccc2)CCOCC1 (stereo not drawn) [compound 16456368]	101.6	2.8 % of Negative Control
O=C1CC(c2cccs2)CC(=O)N1Cc1csc(-c2ccccc2)n1 [compound 71801965]	3.9	95.9 % of Negative Control
Cc1cc(-c2nnc(NC(=O)C3Oc4ccccc4OC3C)o2)n(C)n1 (stereo not drawn) [compound 44070699]	-15.7	97.2 % of Negative Control
COC(=O)c1c(N)sc(C)c1-c1ccc(F)cc1 [compound 874714]	87.6	75.9 % of Negative Control
Cc1ccc(N2C(=O)CC(Sc3ccccc3C(=O)O)C2=O)c(Br)c1 (stereo not drawn) [compound 2919713]	67.2	94.3 % of Negative Control
C=C(C)Cn1c(Cc2ccc(OC)cc2)nc2ccccc21 [compound 962333]	53.4	73.9 % of Negative Control
C(=C\c1cccs1)/c1nnc(-c2cccs2)o1 [compound 6263817]	49.0	84.3 % of Negative Control
O=C(NN1C(=O)/C(=C\c2ccco2)SC1=S)c1ccc(OC(F)F)cc1 [compound 1391595]	65.6	93.6 % of Negative Control
O=C(C1COc2ccccc2O1)N1CCN(c2nc3c(F)cccc3s2)CC1 (stereo not drawn) [compound 16032794]	5.2	115.2 % of Negative Control
